Columns and labels:
[1] = tested on: EGFR Del19/T790M/C797S (BaF3-DTC cells); assay: EGFR degradation HTRF assay, BaF3-DTC cells; type: cell-based; conditions: 16h treatment; for DTC Dmax (%): maximum percentage of degradation; for DC50: read-out: DTC DC50
In short: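 BaF3 (WT, Del19/T790M/C797S) and HCC827 cells exposed 16 h at 37 °C, 5% CO2 to compounds in 0.2% DMSO medium, 8 doses from 10 uM top, 5-fold steps. Lysates read by HTRF (665/620 nm); degradation % vs DMSO control, DC50 from four-parameter fit, Dmax as maximal degradation.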

[2] = target: T1, EGFR L858R/T790M/C797S (BaF3-LTC cells) (Homo sapiens, UniProt P00533, C797S/L858R/T790M); assay: EGFR degradation HTRF assay, BaF3-LTC cells; type: cell-based; conditions: BaF3-LTC, 16h treatment; for Dmax: maximum percentage of degradation, read-out: LTC Dmax (%); for DC50: read-out: LTC DC50
T1 construct: expressed in transfected cells; host or cells: BaF3
T1 sequence (P00533 25-1210 T790M/C797S/L858R): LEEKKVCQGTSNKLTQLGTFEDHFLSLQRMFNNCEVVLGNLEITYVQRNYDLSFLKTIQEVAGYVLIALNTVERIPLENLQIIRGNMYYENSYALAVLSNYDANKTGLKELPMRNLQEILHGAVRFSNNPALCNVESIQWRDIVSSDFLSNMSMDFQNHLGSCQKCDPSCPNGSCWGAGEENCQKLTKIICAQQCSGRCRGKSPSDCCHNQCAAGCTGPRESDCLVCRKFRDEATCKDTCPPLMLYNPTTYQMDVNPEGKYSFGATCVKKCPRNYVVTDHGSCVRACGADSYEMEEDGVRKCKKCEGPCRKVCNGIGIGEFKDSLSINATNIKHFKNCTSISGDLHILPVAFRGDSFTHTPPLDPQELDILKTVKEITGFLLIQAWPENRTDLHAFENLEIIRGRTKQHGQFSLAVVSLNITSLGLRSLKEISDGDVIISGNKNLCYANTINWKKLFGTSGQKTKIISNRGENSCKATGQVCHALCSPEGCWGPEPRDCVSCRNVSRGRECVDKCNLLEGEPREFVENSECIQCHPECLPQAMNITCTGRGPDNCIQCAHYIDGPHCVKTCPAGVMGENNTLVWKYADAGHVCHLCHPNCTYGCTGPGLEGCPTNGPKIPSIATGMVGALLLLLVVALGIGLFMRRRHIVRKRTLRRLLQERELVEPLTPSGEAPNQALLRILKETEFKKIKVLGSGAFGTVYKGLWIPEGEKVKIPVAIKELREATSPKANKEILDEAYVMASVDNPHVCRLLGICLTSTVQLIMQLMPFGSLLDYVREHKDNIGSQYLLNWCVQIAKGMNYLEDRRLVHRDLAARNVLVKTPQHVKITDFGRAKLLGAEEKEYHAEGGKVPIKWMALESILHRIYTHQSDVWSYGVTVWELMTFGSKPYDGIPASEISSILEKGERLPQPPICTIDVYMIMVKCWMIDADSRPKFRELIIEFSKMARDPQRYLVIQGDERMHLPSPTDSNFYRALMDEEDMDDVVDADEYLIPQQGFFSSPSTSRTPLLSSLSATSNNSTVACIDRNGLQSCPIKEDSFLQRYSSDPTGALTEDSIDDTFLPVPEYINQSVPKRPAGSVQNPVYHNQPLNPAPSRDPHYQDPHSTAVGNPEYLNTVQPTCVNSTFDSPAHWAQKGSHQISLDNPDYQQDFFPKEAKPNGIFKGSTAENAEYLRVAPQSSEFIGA
In short: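 Cells treated 16 h at 37 °C, 5% CO2 in medium with 0.2% DMSO; top final concentration 10 uM, 5-fold dilution, 8 doses. Lysates read by HTRF (665/620 nm); degradation % versus DMSO high control, DC50 from four-parameter fit, Dmax as maximal degradation.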

| SMILES | DC50 [1] | Dmax [2] | DC50 [2] | DTC Dmax (%) [1] |
| --- | --- | --- | --- | --- |
| CCc1cc(Nc2ncc(Br)c(Nc3ccc4nccnc4c3P(C)(C)=O)n2)c(OC)cc1N1CCC(N2CCN(C(=O)[C@H]3CCN(c4cccc(C5CCC(=O)NC5=O)c4)C3)CC2)CC1 (stereo partly drawn) [Example 225, 3-(3-((S)-3-(4-(1-(4-((5-bromo-4-((5-(dimethylphosphoryl)quinoxalin-6-yl)amino)pyrimidin-2-yl)amino)-2-ethyl-5-methoxyphenyl)piperidin-4-yl)piperazine-1-carbonyl)pyrrolidin-1-yl)phenyl)piperidine-2,6-dione] | 6.98 nM | 79.2% | 48.9 nM | 89.48% |
| CCc1cc(Nc2ncc(Br)c(Nc3ccc4nccnc4c3P(C)(C)=O)n2)c(OC)cc1N1CCC(N2CCN(CC3CN(c4cccc(C5CCC(=O)NC5=O)c4)C3)CC2)CC1 (stereo not drawn) [Example 226, 3-(3-(3-((4-(1-(4-((5-bromo-4-((5-(dimethylphosphoryl)quinoxalin-6-yl)amino)pyrimidin-2-yl)amino)-2-ethyl-5-methoxyphenyl)piperidin-4-yl)piperazin-1-yl)methyl)azetidin-1-yl)phenyl)piperidine-2,6-dione] | 26.6 nM | 66.9% | 31.4 nM | 77.91% |
| CCc1cc(Nc2ncc(Br)c(Nc3ccc4nccnc4c3P(C)(C)=O)n2)c(OC)cc1N1CCC(N2CCN(C(=O)C3CN(c4ccc5c(c4)C(=O)N(C4CCC(=O)NC4=O)C5)C3)CC2)CC1 (stereo not drawn) [Example 227, 3-(6-(3-(4-(1-(4-((5-bromo-4-((5-(dimethylphosphoryl)quinoxalin-6-yl)amino)pyrimidin-2-yl)amino)-2-ethyl-5-methoxyphenyl)piperidin-4-yl)piperazine-1-carbonyl)azetidin-1-yl)-1-oxoisoindolin-2-yl)piperidine-2,6-dione] | 4.87 nM | 91.8% | 10.3 nM | 90.5% |
| CCc1cc(Nc2ncc(Br)c(Nc3ccc4nccnc4c3P(C)(C)=O)n2)c(OC)cc1N1CCC(N2CCN(C[C@H]3CCN(c4ccc5c(c4)C(=O)N(C4CCC(=O)NC4=O)C5=O)C3)CC2)CC1 (stereo partly drawn) [Example 232, 5-((R)-3-((4-(1-(4-((5-bromo-4-((5-(dimethylphosphoryl)quinoxalin-6-yl)amino)pyrimidin-2-yl)amino)-2-ethyl-5-methoxyphenyl)piperidin-4-yl)piperazin-1-yl)methyl)pyrrolidin-1-yl)-2-(2,6-dioxopiperidin-3-yl)isoindoline-1,3-dione] | 23.8 nM | 86.9% | 43 nM | 86.38% |
| CCc1cc(Nc2ncc(Br)c(Nc3ccc4nccnc4c3P(C)(C)=O)n2)c(OC)cc1N1CCC(N2CCN(C[C@@H]3CCN(c4ccc5c(c4)CN(C4CCC(=O)NC4=O)C5=O)C3)CC2)CC1 (stereo partly drawn) [Example 234, 3-(5-((S)-3-((4-(1-(4-((5-bromo-4-((5-(dimethylphosphoryl)quinoxalin-6-yl)amino)pyrimidin-2-yl)amino)-2-ethyl-5-methoxyphenyl)piperidin-4-yl)piperazin-1-yl)methyl)pyrrolidin-1-yl)-1-oxoisoindolin-2-yl)piperidine-2,6-dione] | 4.19 nM | 87.8% | 15.8 nM | 90.55% |
| CCc1cc(Nc2ncc(Br)c(Nc3ccc4nccnc4c3P(C)(C)=O)n2)c(OC)cc1N1CCC(N2CCN(C(=O)[C@H]3C[C@H](N(C)c4ccc5c(c4)C(=O)N(C4CCC(=O)NC4=O)C5=O)C3)CC2)CC1 (stereo partly drawn) [Example 236, 5-(((1r,3r)-3-(4-(1-(4-((5-bromo-4-((5-(dimethylphosphoryl)quinoxalin-6-yl)amino)pyrimidin-2-yl)amino)-2-ethyl-5-methoxyphenyl)piperidin-4-yl)piperazine-1-carbonyl)cyclobutyl)(methyl)amino)-2-(2,6-dioxopiperidin-3-yl)isoindoline-1,3-dione] | 6.3 nM | 83% | 33.5 nM | 90.89% |
| CCc1cc(Nc2ncc(Br)c(Nc3ccc4nccnc4c3P(C)(C)=O)n2)c(OC)cc1N1CCC(N2CCN(C[C@H]3CCN(c4ccc5c(c4)CN(C4CCC(=O)NC4=O)C5=O)C3)CC2)CC1 (stereo partly drawn) [Example 237, 3-(5-((R)-3-((4-(1-(4-((5-bromo-4-((5-(dimethylphosphoryl)quinoxalin-6-yl)amino)pyrimidin-2-yl)amino)-2-ethyl-5-methoxyphenyl)piperidin-4-yl)piperazin-1-yl)methyl)pyrrolidin-1-yl)-1-oxoisoindolin-2-yl)piperidine-2,6-dione] | 6.15 nM | 92.5% | 9.47 nM | 92.67% |
| CCc1cc(Nc2ncc(Br)c(Nc3ccc4nccnc4c3P(C)(C)=O)n2)c(OC)cc1N1CCC(N2CCN(CCc3cc(F)c(C4CCC(=O)NC4=O)c(Cl)c3)CC2)CC1 (stereo not drawn) [Example 238, 3-(4-(2-(4-(1-(4-((5-bromo-4-((5-(dimethylphosphoryl)quinoxalin-6-yl)amino)pyrimidin-2-yl)amino)-2-ethyl-5-methoxyphenyl)piperidin-4-yl)piperazin-1-yl)ethyl)-2-chloro-6-fluorophenyl)piperidine-2,6-dione] | 9.2 nM | 88.3% | 39.3 nM | 93.21% |
| CCc1cc(Nc2ncc(Br)c(Nc3ccc4nccnc4c3P(C)(C)=O)n2)c(OC)cc1N1CCC(N2CCN(CC3CN(c4ccc5c(c4)C(=O)N(C4CCC(=O)NC4=O)C5)C3)CC2)CC1 (stereo not drawn) [Example 239, 3-(6-(3-((4-(1-(4-((5-bromo-4-((5-(dimethylphosphoryl)quinoxalin-6-yl)amino)pyrimidin-2-yl)amino)-2-ethyl-5-methoxyphenyl)piperidin-4-yl)piperazin-1-yl)methyl)azetidin-1-yl)-1-oxoisoindolin-2-yl)piperidine-2,6-dione] | 3.34 nM | 87% | 12.3 nM | 88.8% |
| CCc1cc(Nc2ncc(Br)c(Nc3ccc4nccnc4c3P(C)(C)=O)n2)c(OC)cc1N1CCC(N2CCN(C(=O)[C@H]3CCN(c4ccc5c(c4)CN(C4CCC(=O)NC4=O)C5=O)C3)CC2)CC1 (stereo partly drawn) [Example 240, 3-(5-((S)-3-(4-(1-(4-((5-bromo-4-((5-(dimethylphosphoryl)quinoxalin-6-yl)amino)pyrimidin-2-yl)amino)-2-ethyl-5-methoxyphenyl)piperidin-4-yl)piperazine-1-carbonyl)pyrrolidin-1-yl)-1-oxoisoindolin-2-yl)piperidine-2,6-dione] | 3.83 nM | 87.7% | 5.95 nM | 89.2% |

The remaining compounds from weak to strong by DC50 [1], led by results:

| DC50 [1] | Dmax [2] | DC50 [2] | SMILES | DTC Dmax (%) [1] |
| --- | --- | --- | --- | --- |
| 17.5 nM | 78% | 30.1 nM | CCc1cc(Nc2ncc(Br)c(Nc3ccc4nccnc4c3P(C)(C)=O)n2)c(OC)cc1N1CCC(N2CCN(C[C@@H]3CCN(c4ccc5c(c4)C(=O)N(C4CCC(=O)NC4=O)C5=O)C3)CC2)CC1 (stereo partly drawn) [Example 235, 5-((S)-3-((4-(1-(4-((5-bromo-4-((5-(dimethylphosphoryl)quinoxalin-6-yl)amino)pyrimidin-2-yl)amino)-2-ethyl-5-methoxyphenyl)piperidin-4-yl)piperazin-1-yl)methyl)pyrrolidin-1-yl)-2-(2,6-dioxopiperidin-3-yl)isoindoline-1,3-dione] | 81.09% |
| 13.1 nM | 80.6% | 35.3 nM | CCc1cc(Nc2ncc(Br)c(Nc3ccc4nccnc4c3P(C)(C)=O)n2)c(OC)cc1N1CCC(N2CCN(CCc3cc(F)c(C4CCC(=O)NC4=O)cc3F)CC2)CC1 (stereo not drawn) [Example 233, 3-(4-(2-(4-(1-(4-((5-bromo-4-((5-(dimethylphosphoryl)quinoxalin-6-yl)amino)pyrimidin-2-yl)amino)-2-ethyl-5-methoxyphenyl)piperidin-4-yl)piperazin-1-yl)ethyl)-2,5-difluorophenyl)piperidine-2,6-dione] | 86.57% |
| 9.11 nM | 72% | 19.8 nM | CCc1cc(Nc2ncc(Br)c(Nc3ccc4nccnc4c3P(C)(C)=O)n2)c(OC)cc1N1CCC(N2CCN(C(=O)C3CN(c4cccc(C5CCC(=O)NC5=O)c4)C3)CC2)CC1 (stereo not drawn) [Example 230, 3-(3-(3-(4-(1-(4-((5-bromo-4-((5-(dimethylphosphoryl)quinoxalin-6-yl)amino)pyrimidin-2-yl)amino)-2-ethyl-5-methoxyphenyl)piperidin-4-yl)piperazine-1-carbonyl)azetidin-1-yl)phenyl)piperidine-2,6-dione] | 73.42% |
| 8.28 nM | 77.6% | 25.3 nM | CCc1cc(Nc2ncc(Br)c(Nc3ccc4nccnc4c3P(C)(C)=O)n2)c(OC)cc1N1CCC(N2CCN(CC3CN(c4ccc(C5CCC(=O)NC5=O)cc4)C3)CC2)CC1 (stereo not drawn) [Example 231, 3-(4-(3-((4-(1-(4-((5-bromo-4-((5-(dimethylphosphoryl)quinoxalin-6-yl)amino)pyrimidin-2-yl)amino)-2-ethyl-5-methoxyphenyl)piperidin-4-yl)piperazin-1-yl)methyl)azetidin-1-yl)phenyl)piperidine-2,6-dione] | 76.04% |
| 3.49 nM | 81.8% | 19.8 nM | CCc1cc(Nc2ncc(Br)c(Nc3ccc4nccnc4c3P(C)(C)=O)n2)c(OC)cc1N1CCC(N2CCN(C(=O)C3CN(c4ccc(C5CCC(=O)NC5=O)c(F)c4)C3)CC2)CC1 (stereo not drawn) [Example 228, 3-(4-(3-(4-(1-(4-((5-bromo-4-((5-(dimethylphosphoryl)quinoxalin-6-yl)amino)pyrimidin-2-yl)amino)-2-ethyl-5-methoxyphenyl)piperidin-4-yl)piperazine-1-carbonyl)azetidin-1-yl)-2-fluorophenyl)piperidine-2,6-dione] | 79.14% |
